Laboratory results from US20240398805A1, “QUINAZOLINE DERIVED COMPOUNDS AS EGFR INHIBITORS AND THEIR USES THEREOF” (ACCUTAR BIOTECHNOLOGY INC., priority 2021, published 2024).

Tests used:
Assay type in all cases: cell-based
HCC827 cells = assay: Cell growth inhibition (CellTiter-Glo, 3 days) in HCC827; conditions: Homo sapiens, 72 h, 3 days after administration
Method in brief: (§1)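 HCC827 cells were plated at 5000 cells/well in RPMI with 10% FBS, and A431 cells at the same density in DMEM with 10% FBS. After overnight attachment, compounds were added at various concentrations. Luminescence was recorded after plates were equilibrated to room temperature and incubated 10 min with reagent.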

[1] = system: HCC827-SVD cells (human EGFR exon 20 insertion mutant D770_N771 insSVD); assay: Cell growth inhibition (CellTiter-Glo, 3 days) in HCC827-SVD; conditions: 72 h, 3 days after administration
Method in brief: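 HCC827 cells carrying lentiviral codon-optimized EGFR D770_N771 insSVD, with endogenous EGFR knocked out by CRISPR (single clone), seeded at 5000 cells/well in RPMI with 10% FBS. Viability read by CellTiter-Glo luminescence.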

[2] = system: HCC827-ASV cells (human EGFR exon 20 insertion mutant A769_D770insASV); assay: Cell growth inhibition (CellTiter-Glo, 3 days) in HCC827-ASV; conditions: 72 h, 3 days after administration
Method in brief: (§2)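 Growth inhibition used a CellTiter-Glo luminescence read-out after 3 days of compound exposure at various concentrations. Cells were plated the day before at 5000/well in RPMI plus 10% FBS. The lines are HCC827 transduced by lentivirus with codon-optimized EGFR ASV or ERBB2 YVMA exon 20 insertions.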

[3] = system: HCC827-YVMA cells (human ERBB2 exon20 insertion mutant A775_G776ins YVMA); assay: Cell growth inhibition (CellTiter-Glo, 3 days) in HCC827-YVMA; conditions: 72 h, 3 days after administration
Method in brief: as §2

A431 cells = assay: Cell growth inhibition (CellTiter-Glo, 3 days) in A431; conditions: Homo sapiens, A-431, 72 h, 3 days after administration
Method in brief: as §1

GI50 (HCC827 cells) | GI50 [1] | GI50 [2] | GI50 [3] | GI50 (A431 cells) | Compound
600 to 1000 nM | 300 to 600 nM | 300 to 600 nM | 300 to 600 nM | ≥ 1000 nM | C=CC(=O)N1CCC(Nc2cc3c(Nc4ccc(Oc5ccnc(N6CC7CN(C)CC7C6)c5)cc4F)ncnc3cc2OC)CC1 (stereo not drawn) [Example 240, 1-(4-((4-((2-fluoro-4-((2-(5-methylhexahydropyrrolo[3,4-c]pyrrol-2(1H)-yl)pyridin-4-yl)oxy)phenyl)amino)-7-methoxyquinazolin-6-yl)amino)piperidin-1-yl)prop-2-en-1-one]
< 30 nM | 30 to 60 nM | 60 to 100 nM | 60 to 100 nM | 600 to 1000 nM | C=CC(=O)N1CCC(Nc2cc3c(Nc4ccc(Oc5ccnc(N6C[C@H]7CCCC[C@H]7C6)c5)cc4F)ncnc3cc2OC)CC1 [Example 241, 1-(4-((4-((2-fluoro-4-((2-((3aR,7aS)-octahydro-2H-isoindol-2-yl)pyridin-4-yl)oxy)phenyl)amino)-7-methoxyquinazolin-6-yl)amino)piperidin-1-yl)prop-2-en-1-one]
≥ 1000 nM | 100 to 300 nM | 100 to 300 nM | 100 to 300 nM | ≥ 1000 nM | C=CC(=O)N1CCC(Nc2cc3c(Nc4ccc(Oc5ccnc(N6CCCN(C)CC6)c5)cc4F)ncnc3cc2OC)CC1 [Example 242, 1-(4-((4-((2-fluoro-4-((2-(4-methyl-1,4-diazepan-1-yl)pyridin-4-yl)oxy)phenyl)amino)-7-methoxyquinazolin-6-yl)amino)piperidin-1-yl)prop-2-en-1-one]
< 30 nM | < 30 nM | < 30 nM | < 30 nM | 60 to 100 nM | C=CC(=O)N1CCC(Nc2cc3c(Nc4ccc(Oc5ccnc(NC6CC6)c5)cc4F)ncnc3cc2OC)CC1 [Example 244, 1-(4-((4-((4-((2-(cyclopropylamino)pyridin-4-yl)oxy)-2-fluorophenyl)amino)-7-methoxyquinazolin-6-yl)amino)piperidin-1-yl)prop-2-en-1-one]
100 to 300 nM | 30 to 60 nM | < 30 nM | < 30 nM | 300 to 600 nM | C=CC(=O)N1CCC(Nc2cc3c(Nc4ccc(Oc5ccnc(NC(C)(C)C)c5)cc4F)ncnc3cc2OC)CC1 [Example 245, 1-(4-((4-((4-((2-(tert-butylamino)pyridin-4-yl)oxy)-2-fluorophenyl)amino)-7-methoxyquinazolin-6-yl)amino)piperidin-1-yl)prop-2-en-1-one]
30 to 60 nM | < 30 nM | < 30 nM | < 30 nM | 100 to 300 nM | C=CC(=O)N1CCC(Nc2cc3c(Nc4ccc(Oc5ccnc(NC6CCCC6)c5)cc4F)ncnc3cc2OC)CC1 [Example 246, 1-(4-((4-((4-((2-(cyclopentylamino)pyridin-4-yl)oxy)-2-fluorophenyl)amino)-7-methoxyquinazolin-6-yl)amino)piperidin-1-yl)prop-2-en-1-one]
100 to 300 nM | 60 to 100 nM | 60 to 100 nM | 30 to 60 nM | 600 to 1000 nM | C=CC(=O)N1CCC(Nc2cc3c(Nc4ccc(Oc5ccnc(N[C@H]6CCOC6)c5)cc4F)ncnc3cc2OC)CC1 [Example 247, (S)-1-(4-((4-((2-fluoro-4-((2-((tetrahydrofuran-3-yl)amino)pyridin-4-yl)oxy)phenyl)amino)-7-methoxyquinazolin-6-yl)amino)piperidin-1-yl)prop-2-en-1-one]
60 to 100 nM | 30 to 60 nM | 30 to 60 nM | 30 to 60 nM | 300 to 600 nM | C=CC(=O)N1CCC(Nc2cc3c(Nc4ccc(Oc5ccnc(N[C@@H]6CCOC6)c5)cc4F)ncnc3cc2OC)CC1 [Example 248, (R)-1-(4-((4-((2-fluoro-4-((2-((tetrahydrofuran-3-yl)amino)pyridin-4-yl)oxy)phenyl)amino)-7-methoxyquinazolin-6-yl)amino)piperidin-1-yl)prop-2-en-1-one]
100 to 300 nM | 30 to 60 nM | 60 to 100 nM | 60 to 100 nM | 600 to 1000 nM | C=CC(=O)N1CCC(Nc2cc3c(Nc4ccc(Oc5ccnc(N6CCC[C@H]6C)c5)cc4F)ncnc3cc2OC)CC1 [Example 249, (R)-1-(4-((4-((2-fluoro-4-((2-(2-methylpyrrolidin-1-yl)pyridin-4-yl)oxy)phenyl)amino)-7-methoxyquinazolin-6-yl)amino)piperidin-1-yl)prop-2-en-1-one]
100 to 300 nM | < 30 nM | < 30 nM | < 30 nM | ≥ 1000 nM | C=CC(=O)N1CCC(Nc2cc3c(Nc4ccc(Oc5ccnc(N6CC[C@H](CO)C6)c5)cc4F)ncnc3cc2OC)CC1 [Example 250, (S)-1-(4-((4-((2-fluoro-4-((2-(3-(hydroxymethyl)pyrrolidin-1-yl)pyridin-4-yl)oxy)phenyl)amino)-7-methoxyquinazolin-6-yl)amino)piperidin-1-yl)prop-2-en-1-one]
100 to 300 nM | < 30 nM | 30 to 60 nM | 30 to 60 nM | 300 to 600 nM | C=CC(=O)N1CCC(Nc2cc3c(Nc4ccc(Oc5ccnc(N6CC[C@@H](CO)C6)c5)cc4F)ncnc3cc2OC)CC1 [Example 251, (R)-1-(4-((4-((2-fluoro-4-((2-(3-(hydroxymethyl)pyrrolidin-1-yl)pyridin-4-yl)oxy)phenyl)amino)-7-methoxyquinazolin-6-yl)amino)piperidin-1-yl)prop-2-en-1-one]
100 to 300 nM | 30 to 60 nM | 30 to 60 nM | 30 to 60 nM | 600 to 1000 nM | C=CC(=O)N1CCC(Nc2cc3c(Nc4ccc(Oc5ccnc(N6CCC[C@@H]6C)c5)cc4F)ncnc3cc2OC)CC1 [Example 252, (S)-1-(4-((4-((2-fluoro-4-((2-(2-methylpyrrolidin-1-yl)pyridin-4-yl)oxy)phenyl)amino)-7-methoxyquinazolin-6-yl)amino)piperidin-1-yl)prop-2-en-1-one]
100 to 300 nM | 30 to 60 nM | 30 to 60 nM | 30 to 60 nM | 300 to 600 nM | C=CC(=O)N1CCC(Nc2cc3c(Nc4ccc(Oc5ccnc(N6C[C@@H](F)[C@@H](F)C6)c5)cc4F)ncnc3cc2OC)CC1 [Example 253, 1-(4-((4-((4-((2-((3S,4R)-3,4-difluoropyrrolidin-1-yl)pyridin-4-yl)oxy)-2-fluorophenyl)amino)-7-methoxyquinazolin-6-yl)amino)piperidin-1-yl)prop-2-en-1-one]
60 to 100 nM | < 30 nM | < 30 nM | < 30 nM | ≥ 1000 nM | C=CC(=O)N1CCC(Nc2cc3c(Nc4ccc(Oc5ccnc(N6C[C@@H]7OCCO[C@@H]7C6)c5)cc4F)ncnc3cc2OC)CC1 [Example 254, 1-(4-((4-((2-fluoro-4-((2-((4aR,7aS)-hexahydro-6H-[1,4]dioxino[2,3-c]pyrrol-6-yl)pyridin-4-yl)oxy)phenyl)amino)-7-methoxyquinazolin-6-yl)amino)piperidin-1-yl)prop-2-en-1-one]
300 to 600 nM | < 30 nM | < 30 nM | < 30 nM | ≥ 1000 nM | C=CC(=O)N1CCC(Nc2cc3c(Nc4ccc(Oc5ccnc(N6C[C@@H](OC)[C@H](OC)C6)c5)cc4F)ncnc3cc2OC)CC1 [Example 255, 1-(4-((4-((4-((2-((3R,4R)-3,4-dimethoxypyrrolidin-1-yl)pyridin-4-yl)oxy)-2-fluorophenyl)amino)-7-methoxyquinazolin-6-yl)amino)piperidin-1-yl)prop-2-en-1-one]
